In PMC12650265 (The Journal of Experimental Medicine, 2025):

Assays:
soluble WT MR1 = assay: fluorescence-based thermal shift (thermostability) assay of MR1–ligand complexes; type: binding, human; settings: MR1 refolded with the ligand, SYPRO Orange, 28 to 95°C, three independent experiments
MAIT cells from PBMCs = assay: primary MAIT cell activation in PBMCs (CD69, TNF); type: cell-based, human; settings: 16-h incubation
[1] = tested on: CD3^+ MR1-5-OP-RU tetramer^+ MAIT cells; assay: MAIT cell proliferation in CTV-labeled PBMCs; type: cell-based, human; settings: 7-day culture, 5-OP-RU 10 µM, others 100 µM
[2] = tested on: T1, folded MR1 in C1R.MR1 cells; assay: intracellular total folded MR1 by flow cytometry (8F2.F9); type: cell-based, human; settings: 16 h, 100 µM
T1 construct: expressed in transfected cells; host or cells: C1R B lymphoblastoid cells transduced with MR1*01

MR1 in C1R.MR1 cells = tested on: T2, MR1 in C1R.MR1 cells; assay: Endo H treatment and western blot of intracellular MR1; type: cell-based, human; settings: 16 h, Ac-6-FP 10 μM, RF and catabolites 100 μM
T2 construct: expressed in transfected cells; host or cells: C1R B lymphoblastoid cells transduced with MR1*01
Procedure: The downregulation of MR1 on the cell surface by the RF catabolites could be due to the depletion of the intracellular ER-resident MR1 pool, or due to the retention of MR1 in the ER, as shown for the DB28 ligand ([Salio et al., 2020]). To investigate this, C1R.MR1 cells were treated for 16 h with 100 µM RF or RF catabolites, conditions that induce MR1 downregulation (Fig. 3 A). Cells were lysed, and treated with endoglycosidase (Endo) H, to distinguish molecules that remain within the ER from those that have trafficked to the cell surface ([McWilliam et al., 2016]), and then, MR1 levels were assessed by immunoblotting (Fig. 3 A).
C1R.MR1 cells were cultured with different RF catabolites for 16 h, at 37°C. Samples were then treated with or without Endo H for 1-h incubation at 37°C. Cells were lysed, and lysate protein concentration was quantified by BCA assay. Equal amounts of samples (40 µg total protein) were separated on SDS-PAGE gels before being transferred onto nitrocellulose membranes and incubated with primary (anti-MR1; clone 8G3) ([McWilliam et al., 2020]) then corresponding secondary antibody (IRDye 800CW anti-mouse IgG, Cat. No. 925-32210; LICORbio). The protein bands were visualized by the Li-Cor system.

[3] = tested on: T3, MR1^R9H on C1R.MR1^R9H cells; assay: cell surface MR1^R9H by flow cytometry; type: cell-based, human
T3 construct: expressed in transfected cells; host or cells: C1R cells stably transduced with MR1^R9H
Excerpt: (§1) We then tested the effect of the RF catabolites on the expression of two mutant versions of MR1 termed MR1^R9H ([Howson et al., 2020]) and MR1^K43A ([Reantragoon et al., 2013]). First, we tested the MR1^R9H mutant ([Howson et al., 2020]), which represents a rare, natural human polymorph. […] We used C1R.MR1^R9H cells, which are produced by stable transduction of wild-type C1R cells, which express low levels of wild-type MR1, with a vector expressing the MR1^R9H mutant ([Howson et al., 2020]). […] When C1R. […] Next, we sought to understand how the previously characterized K43A mutation affects ligand binding.
The level of MR1 expressed on the cell surface was measured after the exposure to the investigated ligands as previously described ([Awad et al., 2020a]; [Wang et al., 2022a]). C1R Ag-presenting B lymphocytes overexpressing MR1*01 (C1R.MR1), MR1^K43A mutant (C1R.MR1^K43A), MR1^R9H mutant (C1R.MR1^R9H), or HLA-A*02:01 (C1R-A2), in addition to the monocytic THP-1-MR1 cells, were used in this study. […] The PE fluorescence intensity reflects the surface MR1 level. The data were acquired with LSRFortessa X-20 (BD Biosciences) and Diva software (BD Biosciences) and analyzed using FlowJo software (BD Biosciences).

[4] = tested on: T4, MR1^K43A on C1R.MR1^K43A cells; assay: cell surface MR1^K43A by flow cytometry; type: cell-based, human; settings: 3 h
T4 construct: expressed in transfected cells; host or cells: C1R cells overexpressing MR1^K43A
Excerpt: as §1
The level of MR1 expressed on the cell surface was measured after the exposure to the investigated ligands as previously described ([Awad et al., 2020a]; [Wang et al., 2022a]). C1R Ag-presenting B lymphocytes overexpressing MR1*01 (C1R.MR1), MR1^K43A mutant (C1R.MR1^K43A), MR1^R9H mutant (C1R.MR1^R9H), or HLA-A*02:01 (C1R-A2), in addition to the monocytic THP-1-MR1 cells, were used in this study. 2 × 10^5 cells were incubated with RF catabolites for 3 or 16 h at 37°C and 5% CO2 in 200 μl folate-free RPMI 1640 medium from Gibco (Cat. No. 11875-093) fortified with 10% fetal bovine serum, sodium pyruvate (1 mmol/L), HEPES buffer (15 mmol/L), pH 7.2–7.5, 2% penicillin (100 U/ml), streptomycin ([…]), GlutaMAX (2 mmol/L), nonessential amino acids (0.1 mmol/L) (all from Thermo Fisher Scientific, Life Technologies), and 2-mercaptoethanol ([…], Sigma-Aldrich) (RF-10). After incubation, the cells were first stained with Zombie Aqua Fixable Viability Kit from BioLegend (Cat. No. 423102) and then incubated with biotinylated 8F2F9 αMR1 antibody for 30 min on ice. The unbound antibody was then washed off with 2% fetal bovine serum/PBS (called 2% FACS hereafter) buffer. The cells were finally incubated with PE-conjugated streptavidin (30 μg/ml; BioLegend) and then washed with 2% FACS buffer. The PE fluorescence intensity reflects the surface MR1 level. The data were acquired with LSRFortessa X-20 (BD Biosciences) and Diva software (BD Biosciences) and analyzed using FlowJo software (BD Biosciences).

SKW-3-MAV36 line = assay: SKW-3 reporter T cell activation (CD69), coculture with C1R.MR1; type: cell-based; settings: SKW-3-MAV36, in the presence of 5-OP-RU
Procedure: (§2) Given the intracellular MR1 retention induced by the RF catabolites, we anticipated that these ligands could influence the activity of MR1-reactive T cells. First, we utilized a system whereby reporter SKW-3 T cell lines were cocultured with C1R.MR1 APCs and activation was determined by CD69 expression. […] In contrast, SKW-3-MBV28 cells were inhibited by alloxazine but activated by lumichrome (Fig. S3, D–F). Two MR1-restricted TRAV1-2^−ve SKW-3 T cell lines were also tested.
(§3) C1R.MR1 cells (1 × 10^5) were initially stained with CTV (Thermo Fisher Scientific) for 15 min and then incubated with RF catabolites for 20 h. […] Cells were subsequently stained with PE-Cy7-conjugated anti-CD69 (1:100; BD Biosciences) and PE-labeled anti-MR1 (1:100, clone 26.5; BD Biosciences), before analysis on a LSRFortessa (BD Biosciences) flow cytometer. Activation of the SKW-3 cells was reflected by the cell surface CD69 expression.

[5] = tested on: SKW-3 cells expressing MAIT TCR MBV28; assay: as above; type: cell-based; settings: SKW-3-MBV28, in the presence of 5-OP-RU
Procedure: as §2, §3

SKW-3-DGB129 line = assay: as above; type: cell-based; settings: SKW-3-DGB129 cocultured with C1R.MR1
Procedure: as §2, §3

[6] = tested on: SKW-3 cells expressing MAIT TCR AF-7; assay: as above; type: cell-based
Procedure: as §2, §3

[7] = tested on: T5, human MR1–β2-microglobulin (β2m) complex; assay: refolding of recombinant MR1-β2m with ligand; type: binding; settings: ligand added to refolding buffer; gel filtration and SDS-PAGE
T5 construct: plasmids encoding for the extracellular domains of MR1, β2m, and the AF-7 TCRα and TCRβ chains; made in house

hMR1 protein = biological target: T6, hMR1 protein (Homo sapiens, UniProt Q95460); assay: fluorescence polarization–based cell-free assay, competition with JYM20 for MR1 binding; settings: 50% inhibition of 10 nM JYM20 binding to 100 nM empty hMR1, 37°C; three independent experiments in triplicate
T6 construct: plasmids encoding for the extracellular domains of MR1, β2m, and the AF-7 TCRα and TCRβ chains; made in house; host or cells: Escherichia coli BL21(DE3)

[8] = tested on: T7, MR1 on PBMC-derived B lymphocytes; assay: MR1 surface expression on primary B cells; type: cell-based; settings: primary human B cells, 16 h, highest doses, with or without 5-OP-RU
T7 construct: we also measured MR1 on the surface of cells expressing wild-type levels of MR1; endogenous in cells; host or cells: PBMC-derived B lymphocytes from healthy human donors

[9] = tested on: T8, surface MR1*01 on C1R.MR1 cells; assay: quantification of cell surface MR1 by flow cytometry, C1R.MR1 cells; type: cell-based, human; settings: C1R.MR1 cells, 3 h, 1–200 µM, 8F2F9 antibody
T8 construct: expressed in transfected cells; host or cells: C1R B lymphoblastoid cells transduced with MR1*01

| IC50 (hMR1 protein) [µM] | SMILES | Tm50 (half-maximum melting temperature), Mean ± SD (soluble WT MR1) [°C] | CD69 upregulation on MAIT cells, ligand alone (MAIT cells from PBMCs) | MAIT cell proliferation [1] | total level of folded MR1 (intracellular staining with 8F2.F9) [2] | Endo H–resistant MR1 (MR1 in C1R.MR1 cells) | MR1^R9H surface level [3] | MR1^K43A at the cell surface [4] | Tm50 (half-maximum melting temperature), Mean ± SD (soluble WT MR1; listed as MR1-Alloxazine) [°C] | reactivity to 5-OP-RU (CD69) (SKW-3-MAV36 line) | reactivity to 5-OP-RU (CD69) [5] | reactivity of MR1 autoreactive, nucleobase-adduct reactive line (CD69) (SKW-3-DGB129 line) | reactivity to 5-OP-RU (CD69) ([6]; SKW-3-AF-7, in the presence of 1 nM 5-OP-RU) | reactivity to RL-7-Me (CD69) ([6]; SKW-3-AF-7, in the presence of 100 nM RL-7-Me) | folding of the MR1-β2m cocomplex in solution [7] | MR1 surface expression [8] | MR1 cell surface expression [9] |
| --- | --- | --- | --- | --- | --- | --- | --- | --- | --- | --- | --- | --- | --- | --- | --- | --- | --- |
| – | CC(=O)C=Nc1c(NCC(O)C(O)C(O)CO)[nH]c(=O)[nH]c1=O [5-OP-RU, 5-(2-oxopropylideneamino)-6-D-ribitylaminouracil, reference compound] | 58.14 ± 0.60 | induced robust CD69 upregulation | significantly proliferated | – | – | – | – | – | – | – | – | – | – | – | – | – |
| – | CC(=O)Nc1nc2ncc(C=O)nc2c(=O)[nH]1 [Ac-6-FP, acetyl-6-FP, reference compound] | 64.22 ± 0.27 | – | – | significantly increased total folded MR1 | increase in MR1 of a higher molecular weight, in line with Endo H resistance | significantly increased | – | – | – | – | – | – | – | – | – | – |
| 13.4 | O=c1nc2[nH]c3ccccc3nc-2c(=O)[nH]1 [Alloxazine, alloxazine] | – | – | – | increased the total level of folded MR1 | – | – | increased MR1^K43A at the cell surface | 50.73 ± 0.45 | inhibited | inhibited | inhibited | not altered | inhibited in a dose-dependent manner | facilitated the correct folding of the MR1-β2m cocomplex | reduced MR1 surface expression | reduced MR1 cell surface |
